Experimental data as given in patent US20150196033A1, “PESTICIDAL COMPOSITIONS AND PROCESSES RELATED THERETO” (priority 2012, published 2015).

What was measured:
Assay type in all cases: in vivo
[1] = tested on: Beet Armyworm (BAW) (Spodoptera exigua); assay: Bioassay on Beet Armyworm (BAW), 128-well diet tray assay; settings: Spodoptera exigua, 168 h; 50 μg/cm2 on artificial diet, second instar larvae, five to seven days; read-out: Rating BAW (% Control (or Mortality))
Outline: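 Spodoptera exigua larvae on diet trays held 5–7 days at 25 °C, 14:10 light-dark. Percent mortality scored per well and averaged over eight wells.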

[2] = tested on: Corn Earworm (CEW) (Helicoverpa zea); assay: Bioassay on Corn Earworm (CEW), 128-well diet tray assay; settings: Helicoverpa zea, 168 h, second instar larvae, five to seven days; for mortality at 50 µg/cm2: 50 μg/cm2 on artificial diet, read-out: Rating CEW (% Control (or Mortality)); for mortality at 0.5 µg/cm2: 0.5 μg/cm2 on artificial diet, read-out: Rating CEW (% Control (or Mortality)), *Tested at 0.5 μg/cm2
Outline: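 Helicoverpa zea larvae in 128-well diet trays, held at 25 °C, 14:10 light-dark for five to seven days. Percent mortality scored per well and averaged over eight wells.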

[3] = tested on: Green Peach Aphid (GPA) (Myzus persicae); assay: Bioassay on Green Peach Aphid (GPA), foliar spray on cabbage seedlings; settings: Myzus persicae, 72 h; 200 ppm foliar spray on cabbage seedlings, graded after three days, Abbott corrected % control; read-out: Rating GPA (% Control (or Mortality))
Description: Certain molecules disclosed in this document were tested against GPA using procedures described in the following example. In the reporting of the results, the “GPA Rating Table” was used (See Table Section).
Cabbage seedlings grown in 3-inch pots, with 2-3 small (3-5 cm) true leaves, were used as test substrate. The seedlings were infested with 20-50 GPA (wingless adult and nymph stages) one day prior to chemical application. Four pots with individual seedlings were used for each treatment. Test compounds (2 mg) were dissolved in 2 mL of acetone/MeOH (1:1) solvent, forming stock solutions of 1000 ppm test compound. The stock solutions were diluted 5× with 0.025% Tween 20 in H2O to obtain the solution at 200 ppm test compound. A hand-held aspirator-type sprayer was used for spraying a solution to both sides of […] leaves until runoff. Reference plants (solvent check) were sprayed with the diluent only containing 20% by volume of acetone/MeOH (1:1) solvent. Treated plants were held in a holding room for three days at approximately 25° C. and ambient relative humidity (RH) prior to grading. Evaluation was conducted by counting the number of live aphids per plant under a microscope. Percent Control was measured by using Abbott's correction formula (W.S. Abbott, “A Method of Computing the Effectiveness of an Insecticide” J. Econ. Entomol. 18 (1925), pp. 265-267) as follows.
Corrected % Control=100*(X−Y)/X • where • X=No. of live aphids on solvent check plants and • Y=No. of live aphids on treated plants

[4] = tested on: Yellow Fever Mosquito (YFM) (Aedes aegypti); settings: about 1 day-old larvae, scored on mortality after 3 days
Description: Certain molecules disclosed in this document were tested against YFM using procedures described in the following paragraph. In the reporting of the results, the “YFM Rating Table” was used (See Table Section).
Master plates containing 400 μg of a molecule dissolved in 100 μL of dimethyl sulfoxide (DMSO) (equivalent to a 4000 ppm solution) are used. A master plate of assembled molecules contains 15 μL per well. To this plate, 135 μL of a 90:10 water:acetone mixture is added to each well. A robot (Biomek® NXP Laboratory Automation Workstation) is programmed to dispense 15 μL aspirations from the master plate into an empty 96-well shallow plate (“daughter” plate). There are 6 reps (“daughter” plates) created per master. The created daughter plates are then immediately infested with YFM larvae.
The day before plates are to be treated, mosquito eggs are placed in Millipore water containing liver powder to begin hatching (4 g. into 400 ml). After the daughter plates are created using the robot, they are infested with 220 μL of the liver powder/larval mosquito mixture (about 1 day-old larvae). After plates are infested with mosquito larvae, a non-evaporative lid is used to cover the plate to reduce drying. Plates are held at room temperature for 3 days prior to grading. After 3 days, each well is observed and scored based on mortality.

Structure (SMILES): Cc1cccc(C)c1N/C(=N/C(=O)Nc1ccc(-c2ncn(-c3ccc(C(F)(F)F)cc3)n2)cc1)SCOC(=O)C(C)C [Molecule A3, (E)-(N′-(2,6-Dimethylphenyl)-N-(4-(1-(4-(trifluoromethyl)phenyl)-1H-1,2,4-triazol-3-yl)phenylcarbamoyl)carbamimidoylthio) methyl isobutyrate]
- mortality at 50 µg/cm2 [1]: 50 to 100%
- mortality at 50 µg/cm2 [2]: 50 to 100%
- mortality at 200 ppm [3]: 0%
- Rating YFM (% Control (or Mortality)) [4]: A (80-100)

Structure (SMILES): Cc1cccc(C)c1N/C(=N/C(=O)Nc1ccc(-c2ncn(-c3ccc(OC(F)(F)F)cc3)n2)cc1)SCOC(=O)C(C)C [Molecule A4, (E)-(N′-(2,6-Dimethylphenyl)-N-(4-(1-(4-(trifluoromethyoxy)phenyl)-1H-1,2,4-triazol-3-yl)phenylcarbamoyl)carbamimidoylthio)methyl isobutyrate]
- mortality at 50 µg/cm2 [1]: 50 to 100%
- mortality at 50 µg/cm2 [2]: 50 to 100%
- mortality at 200 ppm [3]: 0 to 80%
- Rating YFM (% Control (or Mortality)) [4]: A (80-100)

Structure (SMILES): Cc1cccc(C)c1N1C(=O)CS/C1=N\C(=O)Nc1ccc(-c2ncn(-c3ccc(OC(F)(F)F)cc3)n2)cc1 [Molecule A14, (Z)-1-(3-(2,6-dimethylphenyl)-4-oxothiazolidin-2-ylidene)-3-(4-(1-(4-(trifluoromethoxy)phenyl)-1H-1,2,4-triazol-3-yl)phenyl)urea]
- mortality at 50 µg/cm2 [1]: 50 to 100%
- mortality at 50 µg/cm2 [2]: 50 to 100%
- mortality at 200 ppm [3]: 0 to 80%
- Rating YFM (% Control (or Mortality)) [4]: A (80-100)

Structure (SMILES): CCC(C)c1ccccc1N1C(=O)CS/C1=N\C(=O)Nc1ccc(-c2ncn(-c3ccc(OC(F)(F)F)cc3)n2)cc1 (stereo not shown) [Molecule A18, (Z)-1-(3-(2-(sec-butyl)phenyl)-4-oxothiazolidin-2-ylidene)-3-(4-(1-(4-(trifluoromethoxy)phenyl)-1H-1,2,4-triazol-3-yl)phenyl)urea]
- mortality at 50 µg/cm2 [1]: 50 to 100%
- mortality at 50 µg/cm2 [2]: 50 to 100%
- Rating YFM (% Control (or Mortality)) [4]: A (80-100)

Structure (SMILES): Cc1cccc(C)c1N/C(S)=C(\C#N)C(=O)Nc1ccc(-c2ncn(-c3ccc(OC(F)(F)F)cc3)n2)cc1 [Molecule A28, (Z)-2-Cyano-3-mercapto-3-((2,6-dimethylphenyl)amino)-N-(4-(1-(4-(trifluoromethoxy)phenyl)-1H-1,2,4-triazol-3-yl)phenyl)acrylamide]
- mortality at 50 µg/cm2 [1]: 0%
- mortality at 50 µg/cm2 [2]: 50 to 100%
- Rating YFM (% Control (or Mortality)) [4]: D (No activity noticed in this bioassay)

Structure (SMILES): COc1ccc(N/C(O)=C/C(=O)Nc2ccc(-c3ncn(-c4ccc(OC(F)(F)F)cc4)n3)cc2)c(C(C)C)c1 [Molecule A34, (Z)-3-hydroxy-3-(2-isopropyl-4-methoxyphenylamino)-N-(4-(1-(4-(trifluoromethoxy)phenyl)-1H-1,2,4-triazol-3-yl)phenyl)acrylamide]
- mortality at 50 µg/cm2 [1]: 50 to 100%
- mortality at 50 µg/cm2 [2]: 50 to 100%
- mortality at 200 ppm [3]: 0%
- Rating YFM (% Control (or Mortality)) [4]: A (80-100)

Structure (SMILES): CCc1ccccc1N1C(=O)CS/C1=N\C(=O)Nc1ccc(-c2ncn(-c3ccc(OC(F)(F)F)cc3)n2)cc1 [Molecule A35]
- mortality at 50 µg/cm2 [1]: 50 to 100%
- mortality at 50 µg/cm2 [2]: 50 to 100%
- mortality at 200 ppm [3]: 0%
- Rating YFM (% Control (or Mortality)) [4]: A (80-100)

Structure (SMILES): COc1cc(C)c(-n2c(C)cs/c2=N\C(=O)Nc2ccc(-c3ncn(-c4ccc(OC(F)(F)F)cc4)n3)cc2)c(C)c1 [Molecule A44]
- mortality at 50 µg/cm2 [1]: 50 to 100%
- mortality at 50 µg/cm2 [2]: 50 to 100%
- mortality at 200 ppm [3]: 0 to 80%
- Rating YFM (% Control (or Mortality)) [4]: A (80-100)

Structure (SMILES): CCc1ccccc1N/C(S)=N/C(=O)Nc1ccc(-c2ncn(-c3ccc(OC(F)(F)F)cc3)n2)cc1 [Molecule A46]
- mortality at 50 µg/cm2 [1]: 50 to 100%
- mortality at 50 µg/cm2 [2]: 50 to 100%
- mortality at 200 ppm [3]: 0 to 80%
- Rating YFM (% Control (or Mortality)) [4]: A (80-100)

Structure (SMILES): COc1ccc(N/C(=N\C(=O)Nc2ccc(-c3ncn(-c4ccc(OC(F)(F)F)cc4)n3)cc2)SCOC(=O)C(C)C)cc1 [Molecule A62]
- mortality at 50 µg/cm2 [1]: 50 to 100%
- mortality at 50 µg/cm2 [2]: 50 to 100%
- mortality at 200 ppm [3]: 0%
- Rating YFM (% Control (or Mortality)) [4]: A (80-100)

Structure (SMILES): Cc1ccccc1N1C(=O)CS/C1=N\C(=O)Nc1ccc(-c2ncn(-c3ccc(OC(F)(F)F)cc3)n2)cc1 [Molecule A65]
- mortality at 50 µg/cm2 [1]: 50 to 100%
- mortality at 0.5 µg/cm2 [2]: 50 to 100%
- Rating YFM (% Control (or Mortality)) [4]: A (80-100)

Structure (SMILES): CCCc1ccccc1N1C(=O)CS/C1=N\C(=O)Nc1ccc(-c2ncn(-c3ccc(OC(F)(F)F)cc3)n2)cc1 [Molecule A69]
- mortality at 50 µg/cm2 [1]: 50 to 100%
- mortality at 0.5 µg/cm2 [2]: 50 to 100%
- Rating YFM (% Control (or Mortality)) [4]: A (80-100)

Structure (SMILES): Cc1ccc(N2C(=O)CS/C2=N\C(=O)Nc2ccc(-c3ncn(-c4ccc(OC(F)(F)F)cc4)n3)cc2)c(Cl)c1 [Molecule A77]
- mortality at 50 µg/cm2 [1]: 50 to 100%
- mortality at 0.5 µg/cm2 [2]: 50 to 100%
- Rating YFM (% Control (or Mortality)) [4]: B (More than 0-Less than 80)

Structure (SMILES): Cc1ccccc1N/C(S)=N/C(=O)Nc1ccc(-c2ncn(-c3ccc(OC(F)(F)F)cc3)n2)cc1 [Molecule A80]
- mortality at 50 µg/cm2 [1]: 50 to 100%
- mortality at 50 µg/cm2 [2]: 50 to 100%
- Rating YFM (% Control (or Mortality)) [4]: B (More than 0-Less than 80)

Structure (SMILES): CC(C)c1cccc(Cl)c1N1C(=O)CS/C1=N\C(=O)Nc1ccc(-c2ncn(-c3ccc(OC(F)(F)F)cc3)n2)cc1 [Molecule A85]
- mortality at 50 µg/cm2 [1]: 50 to 100%
- mortality at 0.5 µg/cm2 [2]: 50 to 100%
- Rating YFM (% Control (or Mortality)) [4]: A (80-100)

Structure (SMILES): COc1ccc(N2C(=O)CS/C2=N\C(=O)Nc2ccc(-c3ncn(-c4ccc(OC(F)(F)F)cc4)n3)cc2)c(C)c1 [Molecule A110]
- mortality at 50 µg/cm2 [1]: 50 to 100%
- mortality at 0.5 µg/cm2 [2]: 50 to 100%
- mortality at 200 ppm [3]: 0%
- Rating YFM (% Control (or Mortality)) [4]: A (80-100)

Structure (SMILES): Cc1cc(-c2ncn(-c3ccc(OC(F)(F)F)cc3)n2)ccc1NC(=O)/N=C(\S)Nc1ccccc1C(C)C [Molecule A122]
- mortality at 50 µg/cm2 [1]: 50 to 100%
- mortality at 0.5 µg/cm2 [2]: 50 to 100%
- Rating YFM (% Control (or Mortality)) [4]: A (80-100)

Structure (SMILES): Cc1cc(-c2ncn(-c3ccc(OC(F)(F)F)cc3)n2)ccc1NC(=O)/N=C1\SCC(=O)N1c1ccccc1C(C)C [Molecule A123, (Z)-1-(3-(2-isopropylphenyl)-4-oxothiazolidin-2-ylidene)-3-(2-methyl-4-(1-(4-(trifluoromethoxy)phenyl)-1H-1,2,4-triazol-3-yl)phenyl)urea]
- mortality at 50 µg/cm2 [1]: 50 to 100%
- mortality at 0.5 µg/cm2 [2]: 50 to 100%
- Rating YFM (% Control (or Mortality)) [4]: A (80-100)

Structure (SMILES): Cc1cccc(C)c1N1C(=O)C(C)(C)S/C1=N\C(=O)Nc1ccc(-c2ncn(-c3ccc(OC(F)(F)F)cc3)n2)cc1 [Molecule A126]
- mortality at 50 µg/cm2 [1]: 50 to 100%
- mortality at 50 µg/cm2 [2]: 50 to 100%
- mortality at 200 ppm [3]: 0%
- Rating YFM (% Control (or Mortality)) [4]: A (80-100)
